Patent US10435399B2, “HDAC6 inhibitory heterocyclic compound” (TAKEDA PHARMACEUTICAL COMPANY LIMITED, priority 2017, dated 2019)

Each compound was assayed against T1, HDAC6 enzyme (Homo sapiens, UniProt Q9UBN7) (assay: HDAC6 enzyme inhibitory activity (HDAC-Glo I/II Assay kit)). Conditions: 10 μM; wells without enzyme = 100% inhibition; read-out: HDAC6 inhibitory rate (%) (10 μM).
T1 construct: transducing full length HDAC6 gene into Sf-9 insect cells; GST; purchased SignalChem; host or cells: Sf-9 insect cells
T1 sequence (Q9UBN7 1-1215): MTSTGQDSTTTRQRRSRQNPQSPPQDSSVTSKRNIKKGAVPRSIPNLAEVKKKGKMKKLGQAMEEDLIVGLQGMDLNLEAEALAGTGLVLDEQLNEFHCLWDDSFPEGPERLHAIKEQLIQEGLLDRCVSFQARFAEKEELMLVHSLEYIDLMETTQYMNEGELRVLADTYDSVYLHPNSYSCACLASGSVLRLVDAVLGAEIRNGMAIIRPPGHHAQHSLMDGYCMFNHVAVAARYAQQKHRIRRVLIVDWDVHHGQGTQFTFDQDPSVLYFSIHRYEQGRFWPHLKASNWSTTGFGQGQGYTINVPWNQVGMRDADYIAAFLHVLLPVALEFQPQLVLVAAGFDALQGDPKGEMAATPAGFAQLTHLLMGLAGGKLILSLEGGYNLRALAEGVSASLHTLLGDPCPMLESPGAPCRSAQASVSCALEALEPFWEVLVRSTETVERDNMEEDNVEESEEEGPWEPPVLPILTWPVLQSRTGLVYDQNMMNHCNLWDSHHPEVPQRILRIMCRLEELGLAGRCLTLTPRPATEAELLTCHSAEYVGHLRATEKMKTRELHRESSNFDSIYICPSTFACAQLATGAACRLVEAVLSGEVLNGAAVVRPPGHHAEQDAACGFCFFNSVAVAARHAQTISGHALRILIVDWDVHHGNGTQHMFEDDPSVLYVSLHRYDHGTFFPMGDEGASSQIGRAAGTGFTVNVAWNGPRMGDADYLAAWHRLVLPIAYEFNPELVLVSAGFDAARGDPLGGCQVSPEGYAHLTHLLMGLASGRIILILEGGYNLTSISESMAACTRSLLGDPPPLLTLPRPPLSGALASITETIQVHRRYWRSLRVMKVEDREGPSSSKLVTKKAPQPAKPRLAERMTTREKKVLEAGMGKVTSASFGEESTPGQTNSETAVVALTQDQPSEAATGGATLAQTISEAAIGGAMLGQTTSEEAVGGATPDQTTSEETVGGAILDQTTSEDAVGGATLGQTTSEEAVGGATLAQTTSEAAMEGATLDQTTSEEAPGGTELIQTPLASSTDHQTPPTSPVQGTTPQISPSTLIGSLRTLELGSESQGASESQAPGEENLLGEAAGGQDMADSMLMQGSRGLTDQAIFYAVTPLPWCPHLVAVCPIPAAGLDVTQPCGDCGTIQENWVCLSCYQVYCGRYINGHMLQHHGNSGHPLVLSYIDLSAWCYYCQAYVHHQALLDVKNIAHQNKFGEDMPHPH
Assay type: biochemical
Outline: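 Sf-9-derived GST-purified full-length HDAC6 + cpd, 60 min RT, 24 mM Tris pH 7.5/0.6 mM glutathione/0.01% Tween-20; add HDAC-Glo substrate-developer, 20 min RT; luminescence. No-enzyme = 100% inhibition.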

**Q.** For `O=C1OCCCN1[C@@H]1CCCC[C@H]1N1Cc2ccc(-c3nnc(C(F)F)o3)cc2C1=O` [Example 21, 6-(5-(difluoromethyl)-1,3,4-oxadiazol-2-yl)-2-((1R,2R)-2-(2-oxo-1,3-oxazinan-3-yl)cyclohexyl)isoindolin-1-one], which inhibition at 10 µM is on record?
**A.** The inhibition at 10 µM was 100%.

**Q.** Which inhibition at 10 µM does the source give for `O=C1OCCN1[C@@H]1CCCC[C@H]1N1Cc2ccc(-c3nnc(C(F)F)o3)cc2C1=O` [Example 22, 6-(5-(difluoromethyl)-1,3,4-oxadiazol-2-yl)-2-((1R,2R)-2-(2-oxo-1,3-oxazolidin-3-yl)cyclohexyl)isoindolin-1-one] here?
**A.** Its inhibition at 10 µM is 98%.

**Q.** How did the inhibition at 10 µM turn out when `O=C1c2cc(-c3nnc(C(F)F)o3)ccc2CN1[C@@H]1CCCC[C@H]1NC(=O)C1(C(F)F)CC1` [Example 23, 1-(difluoromethyl)-N-((1R,2R)-2-(6-(5-(difluoromethyl)-1,3,4-oxadiazol-2-yl)-1-oxo-1,3-dihydro-2H-isoindol-2-yl)cyclohexyl)cyclopropanecarboxamide] was run?
**A.** The inhibition at 10 µM was 99%.

**Q.** `O=C1c2cc(-c3nnc(C(F)F)o3)ccc2CN1[C@@H]1CCCC[C@H]1NC(=O)C1(C(F)(F)F)CCC1` [Example 24, N-((1R,2R)-2-(6-(5-(difluoromethyl)-1,3,4-oxadiazol-2-yl)-1-oxo-1,3-dihydro-2H-isoindol-2-yl)cyclohexyl)-1-(trifluoromethyl)cyclobutanecarboxamide] was tested. Which inhibition at 10 µM did it give?
**A.** Its inhibition at 10 µM is 98%.

**Q.** Which inhibition at 10 µM does the source give for `COC1(C(=O)N[C@@H]2CCCC[C@H]2N2Cc3ccc(-c4nnc(C(F)F)o4)cc3C2=O)CCC1` [Example 25, N-((1R,2R)-2-(6-(5-(difluoromethyl)-1,3,4-oxadiazol-2-yl)-1-oxo-1,3-dihydro-2H-isoindol-2-yl)cyclohexyl)-1-methoxycyclobutanecarboxamide] here?
**A.** Its inhibition at 10 µM is 99%.

**Q.** How did the inhibition at 10 µM turn out when `O=C(CC1(O)CCCC1)N[C@@H]1CCCC[C@H]1N1Cc2ccc(-c3nnc(C(F)F)o3)cc2C1=O` [Example 26, N-((1R,2R)-2-(6-(5-(difluoromethyl)-1,3,4-oxadiazol-2-yl)-1-oxo-1,3-dihydro-2H-isoindol-2-yl)cyclohexyl)-2-(1-hydroxycyclopentyl)acetamide] was run?
**A.** The inhibition at 10 µM was 98%.

**Q.** Which inhibition at 10 µM does the source give for `O=C(N[C@@H]1CCCC[C@H]1N1Cc2ccc(-c3nnc(C(F)F)o3)cc2C1=O)c1cocn1` [Example 27, N-((1R,2R)-2-(6-(5-(difluoromethyl)-1,3,4-oxadiazol-2-yl)-1-oxo-1,3-dihydro-2H-isoindol-2-yl)cyclohexyl)-1,3-oxazole-4-carboxamide] here?
**A.** The inhibition at 10 µM was 100%.

**Q.** How did the inhibition at 10 µM turn out when `O=C(N[C@@H]1CCCC[C@H]1N1Cc2ccc(-c3nnc(C(F)F)o3)cc2C1=O)C(F)F` [Example 28, N-((1R,2R)-2-(6-(5-(difluoromethyl)-1,3,4-oxadiazol-2-yl)-1-oxo-1,3-dihydro-2H-isoindol-2-yl)cyclohexyl)-2,2-difluoroacetamide] was run?
**A.** The inhibition at 10 µM was 100%.

**Q.** `O=C1c2cc(-c3nnc(C(F)F)o3)ccc2CN1[C@@H]1CCCC[C@H]1NC(=O)C(F)(F)C(F)(F)F` [Example 29, N-((1R,2R)-2-(6-(5-(difluoromethyl)-1,3,4-oxadiazol-2-yl)-1-oxo-1,3-dihydro-2H-isoindol-2-yl)cyclohexyl)-2,2,3,3,3-pentafluoropropanamide] was tested. Which inhibition at 10 µM did it give?
**A.** Its inhibition at 10 µM is 101%.

**Q.** `O=C1COCCN1[C@@H]1CCCC[C@H]1N1Cc2ccc(-c3nnc(C(F)F)o3)cc2C1=O` [Example 30, 6-(5-(difluoromethyl)-1,3,4-oxadiazol-2-yl)-2-((1R,2R)-2-(3-oxomorpholin-4-yl)cyclohexyl) isoindolin-1-one] was tested. Which inhibition at 10 µM did it give?
**A.** The inhibition at 10 µM was 97%.

**Q.** For `O=C1NCCCN1[C@@H]1CCCC[C@H]1N1Cc2ccc(-c3nnc(C(F)F)o3)cc2C1=O` [Example 31, 6-(5-(difluoromethyl)-1,3,4-oxadiazol-2-yl)-2-((1R,2R)-2-(2-oxotetrahydropyrimidin-1(2H)-yl)cyclohexyl) isoindolin-1-one], which inhibition at 10 µM is on record?
**A.** The inhibition at 10 µM was 97%.

**Q.** How did the inhibition at 10 µM turn out when `O=C1c2cc(-c3nnc(C(F)F)o3)ccc2CN1[C@@H]1CCCC[C@H]1NC(=O)C1(C(F)(F)F)CC1` [Example 32, N-((1R,2R)-2-(6-(5-(difluoromethyl)-1,3,4-oxadiazol-2-yl)-1-oxo-1,3-dihydro-2H-isoindol-2-yl)cyclohexyl)-1-(trifluoromethyl)cyclopropanecarboxamide] was run?
**A.** The inhibition at 10 µM was 101%.
